Target: mutant BRAF V600E (Homo sapiens, UniProt P15056, V600E)
Experiment: BRAF V600E HiBiT Degradation Assay in A375.10 cells
Details: 2 hours, A375.10 cells; inflection point of the dose-response curve
Procedure: Compounds of this invention were tested for degradation of mutant BRAF V600E using the HiBiT assay, a luminescence-based assay for quantification of cellular protein levels using the Nano-Glo@HiBiT Lytic Detection System (Catalog No. N3050, Promega, Madison, WI USA). This assay utilizes the HiBiT tag on a protein of interest, which creates a luminescent signal in the presence of a complementing peptide and its substrate, the quantification of which 10 is proportional to the amount of HiBiT-tagged protein in the cell.
A375 cells were engineered to express HiBiT tagged BRAF V600E by CRISPR knock-in of the HiBiT tag to the endogenous BRAF V600E locus, followed by selection of a clonal population containing 15 the appropriate knock-in (referred to here as cell line A375.10). […] Cell culture flasks and 384-well microplates 20 were acquired from VWR (Radnor, PA, USA).
Plates were then spun briefly, and cells were incubated with compound at 37° C. for 2 hoursor 24 hours.
Following the appropriate treatment time, Nano-Glo® HiBiT Lytic Assay reagents were added to the cells per the manufacturer's instructions by adding 30ul of reagent per well, and 10 the luminescence signal was acquired by plate reader. Cells treated with DMSO only (no test compound treatment) were used as the negative control (N). Media only (no cells added) with Nano-Glo reagent addition was used as the background or positive control (P). The percent response of compound treated samples were calculated by subtracting out the background signal (P) and normalizing to the DMSO control (N) as follows. % Response=100 x (Treated Signal - Average (P))/(Average (N) - Average (P)).
Data were analyzed with a 4-parameter logistic fit to generate sigmoidal dose-response curves. […] The Emax, or maximum effect of each compound, represents the amount of residual protein remaining in the cell following compound treatment.
The experiment was conducted at least once for each compound. If the experiment was conducted multiple times, the data shown in the table is the average of the two or more experiments.

Sequence of mutant BRAF V600E (P15056 whole entry V600E): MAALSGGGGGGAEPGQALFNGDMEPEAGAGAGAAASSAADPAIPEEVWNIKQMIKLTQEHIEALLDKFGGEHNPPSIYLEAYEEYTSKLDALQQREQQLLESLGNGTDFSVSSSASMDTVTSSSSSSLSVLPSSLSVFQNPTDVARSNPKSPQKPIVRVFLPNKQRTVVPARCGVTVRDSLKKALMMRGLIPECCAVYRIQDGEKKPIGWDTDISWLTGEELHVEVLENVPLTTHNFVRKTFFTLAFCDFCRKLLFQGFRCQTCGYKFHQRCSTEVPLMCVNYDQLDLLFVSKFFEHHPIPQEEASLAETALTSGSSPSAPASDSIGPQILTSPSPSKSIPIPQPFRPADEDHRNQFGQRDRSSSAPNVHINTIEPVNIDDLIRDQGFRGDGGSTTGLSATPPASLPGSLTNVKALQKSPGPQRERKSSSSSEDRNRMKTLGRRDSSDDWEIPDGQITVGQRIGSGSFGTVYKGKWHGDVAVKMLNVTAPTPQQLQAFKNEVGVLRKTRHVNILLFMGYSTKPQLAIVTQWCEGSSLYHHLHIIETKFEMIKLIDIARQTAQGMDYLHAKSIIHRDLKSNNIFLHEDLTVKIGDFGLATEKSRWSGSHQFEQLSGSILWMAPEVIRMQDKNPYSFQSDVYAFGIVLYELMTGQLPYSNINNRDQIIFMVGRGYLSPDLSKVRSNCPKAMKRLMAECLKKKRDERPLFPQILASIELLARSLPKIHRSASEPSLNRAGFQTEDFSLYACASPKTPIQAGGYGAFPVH

Row | SMILES | HiBIT-Degradation A375.10 BRAF 2 hours IP nM
1 | CCN(C)S(=O)(=O)Nc1ccc(F)c(Oc2ccc3ncn([C@@H]4COC5(CCN(C(=O)CN6CCC(c7ccc(OC8CCC(=O)NC8=O)cc7S(=O)(=O)F)CC6)CC5)C4)c(=O)c3c2)c1C#N (stereo partly drawn) [drawing 1198] | *** (<= 1 μM is)
2 | CCN(C)S(=O)(=O)Nc1ccc(F)c(Oc2ccc3ncn([C@H]4COC5(CCN(C(=O)CN6CCN(c7ccc(C8CCC(=O)NC8=O)cc7OS(=O)(=O)F)CC6)CC5)C4)c(=O)c3c2)c1C#N (stereo partly drawn) [drawing 1199] | *** (<= 1 μM is)
3 | CCN(C)S(=O)(=O)Nc1ccc(F)c(Oc2ccc3ncn([C@H]4COC5(CCN(C(=O)CN6CCC(c7ccc(OC8CCC(=O)NC8=O)cc7S(=O)(=O)F)CC6)CC5)C4)c(=O)c3c2)c1C#N (stereo partly drawn) [drawing 1200] | *** (<= 1 μM is)
4 | CCN(C)S(=O)(=O)Nc1ccc(F)c(Oc2ccc3ncn([C@@H]4COC5(CCN(C(=O)CN6CCC(c7ccc(OC8CCC(=O)NC8=O)cc7OS(=O)(=O)F)CC6)CC5)C4)c(=O)c3c2)c1C#N (stereo partly drawn) [drawing 1201] | *** (<= 1 μM is)
5 | CCN(C)S(=O)(=O)Nc1ccc(F)c(Oc2ccc3ncn([C@H]4COC5(CCN(C(=O)CN6CCC(c7ccc(NC8CCC(=O)NC8=O)cc7OS(C)(=O)=O)CC6)CC5)C4)c(=O)c3c2)c1C#N (stereo partly drawn) [drawing 1202] | *** (<= 1 μM is)
6 | CCN(C)S(=O)(=O)Nc1ccc(F)c(Oc2ccc3ncn([C@@H]4COC5(CCN(C(=O)CN6CCC(c7ccc(N8CCC(=O)NC8=O)cc7OS(C)(=O)=O)CC6)CC5)C4)c(=O)c3c2)c1C#N [drawing 1203] | *** (<= 1 μM is)
7 | CCN(C)S(=O)(=O)Nc1ccc(F)c(Oc2ccc3ncn([C@H]4COC5(CCN(C(=O)CN6CCC(c7ccc(OC8CCC(=O)NC8=O)cc7OS(C)(=O)=O)CC6)CC5)C4)c(=O)c3c2)c1C#N (stereo partly drawn) [drawing 1204] | *** (<= 1 μM is)
8 | CCN(C)S(=O)(=O)Nc1ccc(F)c(Oc2ccc3ncn([C@H]4COC5(CCN(C(=O)CN6CCC(c7ccc(N8CCC(=O)NC8=O)cc7OS(C)(=O)=O)CC6)CC5)C4)c(=O)c3c2)c1C#N [drawing 1205] | ** (<10 μM and >1 μM is **)
9 | CCN(C)S(=O)(=O)Nc1ccc(F)c(Oc2ccc3ncn([C@@H]4COC5(CCN(C(=O)CN6CCC(c7ccc(OC8CCC(=O)NC8=O)cc7OS(C)(=O)=O)CC6)CC5)C4)c(=O)c3c2)c1C#N (stereo partly drawn) [drawing 1206] | ** (<10 μM and >1 μM is **)
10 | CCN(C)S(=O)(=O)Nc1ccc(F)c(Oc2ccc3ncn([C@@H]4COC5(CCN(C(=O)CN6CCC(c7ccc(C8CCC(=O)NC8=O)cc7OS(C)(=O)=O)CC6)CC5)C4)c(=O)c3c2)c1C#N (stereo partly drawn) [drawing 1207] | ** (<10 μM and >1 μM is **)
11 | CCN(C)S(=O)(=O)Nc1ccc(F)c(Oc2ccc3ncn([C@@H]4COC5(CCN(C(=O)CN6CCC(c7ccc(NC8CCC(=O)NC8=O)cc7OS(C)(=O)=O)CC6)CC5)C4)c(=O)c3c2)c1C#N (stereo partly drawn) [drawing 1208] | ** (<10 μM and >1 μM is **)
12 | CCN(C)S(=O)(=O)Nc1ccc(F)c(Oc2ccc3ncn([C@@H]4COC5(CCN(C(=O)CN6CCC(c7ccc(NC8CCC(=O)NC8=O)cc7S(=O)(=O)F)CC6)CC5)C4)c(=O)c3c2)c1C#N (stereo partly drawn) [drawing 1209] | * (>=10 μM is *)

Same assay, conditions: 2 hours, A375.10 cells; residual protein remaining

Row | SMILES | HiBIT-Degradation A375.10 BRAF 2 hours Emax
13 | CCN(C)S(=O)(=O)Nc1ccc(F)c(Oc2ccc3ncn([C@H]4COC5(CCN(C(=O)CN6CCN(c7ccc(C8CCC(=O)NC8=O)cc7OS(=O)(=O)F)CC6)CC5)C4)c(=O)c3c2)c1C#N (stereo partly drawn) [drawing 1199] | *** (<= 60% is)

Same assay, conditions: 24 hours, A375.10 cells; inflection point of the dose-response curve

Row | SMILES | HiBIT-Degradation A375.10 BRAF 24 hours IP nM
14 | CCN(C)S(=O)(=O)Nc1ccc(F)c(Oc2ccc3ncn([C@@H]4COC5(CCN(C(=O)CN6CCC(c7ccc(C8CCC(=O)NC8=O)cc7OS(=O)(=O)F)CC6)CC5)C4)c(=O)c3c2)c1C#N (stereo partly drawn) [drawing 1210] | *** (<= 1 μM is ***)
15 | CCN(C)S(=O)(=O)Nc1ccc(F)c(Oc2ccc3ncn([C@H]4COC5(CCN(C(=O)CN6CCC(c7ccc(C8CCC(=O)NC8=O)cc7OS(=O)(=O)F)CC6)CC5)C4)c(=O)c3c2)c1C#N (stereo partly drawn) [drawing 1211] | *** (<= 1 μM is ***)

Same assay, conditions: read-out: HIBIT-Degradation A375.10 BRAF 2 hours DC50 nM; 2 hours, A375.10 cells

Row | SMILES | DC50
16 | CCN(C)S(=O)(=O)Nc1ccc(F)c(Oc2ccc3ncn([C@@H]4COC5(CCN(C(=O)CN6CCC(c7ccc(OC8CCC(=O)NC8=O)cc7S(=O)(=O)F)CC6)CC5)C4)c(=O)c3c2)c1C#N (stereo partly drawn) [drawing 1198] | 1000 to 10000 nM
17 | CCN(C)S(=O)(=O)Nc1ccc(F)c(Oc2ccc3ncn([C@H]4COC5(CCN(C(=O)CN6CCN(c7ccc(C8CCC(=O)NC8=O)cc7OS(=O)(=O)F)CC6)CC5)C4)c(=O)c3c2)c1C#N (stereo partly drawn) [drawing 1199] | > 10000 nM
18 | CCN(C)S(=O)(=O)Nc1ccc(F)c(Oc2ccc3ncn([C@H]4COC5(CCN(C(=O)CN6CCC(c7ccc(OC8CCC(=O)NC8=O)cc7S(=O)(=O)F)CC6)CC5)C4)c(=O)c3c2)c1C#N (stereo partly drawn) [drawing 1200] | 1000 to 10000 nM
19 | CCN(C)S(=O)(=O)Nc1ccc(F)c(Oc2ccc3ncn([C@@H]4COC5(CCN(C(=O)CN6CCC(c7ccc(OC8CCC(=O)NC8=O)cc7OS(=O)(=O)F)CC6)CC5)C4)c(=O)c3c2)c1C#N (stereo partly drawn) [drawing 1201] | 1000 to 10000 nM
20 | CCN(C)S(=O)(=O)Nc1ccc(F)c(Oc2ccc3ncn([C@H]4COC5(CCN(C(=O)CN6CCC(c7ccc(NC8CCC(=O)NC8=O)cc7OS(C)(=O)=O)CC6)CC5)C4)c(=O)c3c2)c1C#N (stereo partly drawn) [drawing 1202] | 1000 to 10000 nM
21 | CCN(C)S(=O)(=O)Nc1ccc(F)c(Oc2ccc3ncn([C@@H]4COC5(CCN(C(=O)CN6CCC(c7ccc(N8CCC(=O)NC8=O)cc7OS(C)(=O)=O)CC6)CC5)C4)c(=O)c3c2)c1C#N [drawing 1203] | > 10000 nM
22 | CCN(C)S(=O)(=O)Nc1ccc(F)c(Oc2ccc3ncn([C@H]4COC5(CCN(C(=O)CN6CCC(c7ccc(OC8CCC(=O)NC8=O)cc7OS(C)(=O)=O)CC6)CC5)C4)c(=O)c3c2)c1C#N (stereo partly drawn) [drawing 1204] | 1000 to 10000 nM
23 | CCN(C)S(=O)(=O)Nc1ccc(F)c(Oc2ccc3ncn([C@H]4COC5(CCN(C(=O)CN6CCC(c7ccc(N8CCC(=O)NC8=O)cc7OS(C)(=O)=O)CC6)CC5)C4)c(=O)c3c2)c1C#N [drawing 1205] | 1000 to 10000 nM
24 | CCN(C)S(=O)(=O)Nc1ccc(F)c(Oc2ccc3ncn([C@@H]4COC5(CCN(C(=O)CN6CCC(c7ccc(OC8CCC(=O)NC8=O)cc7OS(C)(=O)=O)CC6)CC5)C4)c(=O)c3c2)c1C#N (stereo partly drawn) [drawing 1206] | > 10000 nM
25 | CCN(C)S(=O)(=O)Nc1ccc(F)c(Oc2ccc3ncn([C@@H]4COC5(CCN(C(=O)CN6CCC(c7ccc(C8CCC(=O)NC8=O)cc7OS(C)(=O)=O)CC6)CC5)C4)c(=O)c3c2)c1C#N (stereo partly drawn) [drawing 1207] | > 10000 nM
26 | CCN(C)S(=O)(=O)Nc1ccc(F)c(Oc2ccc3ncn([C@@H]4COC5(CCN(C(=O)CN6CCC(c7ccc(NC8CCC(=O)NC8=O)cc7OS(C)(=O)=O)CC6)CC5)C4)c(=O)c3c2)c1C#N (stereo partly drawn) [drawing 1208] | > 10000 nM
27 | CCN(C)S(=O)(=O)Nc1ccc(F)c(Oc2ccc3ncn([C@@H]4COC5(CCN(C(=O)CN6CCC(c7ccc(NC8CCC(=O)NC8=O)cc7S(=O)(=O)F)CC6)CC5)C4)c(=O)c3c2)c1C#N (stereo partly drawn) [drawing 1209] | > 10000 nM

Same assay, conditions: read-out: HiBIT-Degradation A375.10 BRAF 2 hours Emax

Row | SMILES | Emax
28 | CCN(C)S(=O)(=O)Nc1ccc(F)c(Oc2ccc3ncn([C@@H]4COC5(CCN(C(=O)CN6CCC(c7ccc(OC8CCC(=O)NC8=O)cc7S(=O)(=O)F)CC6)CC5)C4)c(=O)c3c2)c1C#N (stereo partly drawn) [drawing 1198] | 60 to 95%
29 | CCN(C)S(=O)(=O)Nc1ccc(F)c(Oc2ccc3ncn([C@H]4COC5(CCN(C(=O)CN6CCC(c7ccc(OC8CCC(=O)NC8=O)cc7S(=O)(=O)F)CC6)CC5)C4)c(=O)c3c2)c1C#N (stereo partly drawn) [drawing 1200] | 60 to 95%
30 | CCN(C)S(=O)(=O)Nc1ccc(F)c(Oc2ccc3ncn([C@@H]4COC5(CCN(C(=O)CN6CCC(c7ccc(OC8CCC(=O)NC8=O)cc7OS(=O)(=O)F)CC6)CC5)C4)c(=O)c3c2)c1C#N (stereo partly drawn) [drawing 1201] | 60 to 95%
31 | CCN(C)S(=O)(=O)Nc1ccc(F)c(Oc2ccc3ncn([C@H]4COC5(CCN(C(=O)CN6CCC(c7ccc(NC8CCC(=O)NC8=O)cc7OS(C)(=O)=O)CC6)CC5)C4)c(=O)c3c2)c1C#N (stereo partly drawn) [drawing 1202] | < 60%
32 | CCN(C)S(=O)(=O)Nc1ccc(F)c(Oc2ccc3ncn([C@@H]4COC5(CCN(C(=O)CN6CCC(c7ccc(N8CCC(=O)NC8=O)cc7OS(C)(=O)=O)CC6)CC5)C4)c(=O)c3c2)c1C#N [drawing 1203] | < 60%
33 | CCN(C)S(=O)(=O)Nc1ccc(F)c(Oc2ccc3ncn([C@H]4COC5(CCN(C(=O)CN6CCC(c7ccc(OC8CCC(=O)NC8=O)cc7OS(C)(=O)=O)CC6)CC5)C4)c(=O)c3c2)c1C#N (stereo partly drawn) [drawing 1204] | < 60%
34 | CCN(C)S(=O)(=O)Nc1ccc(F)c(Oc2ccc3ncn([C@H]4COC5(CCN(C(=O)CN6CCC(c7ccc(N8CCC(=O)NC8=O)cc7OS(C)(=O)=O)CC6)CC5)C4)c(=O)c3c2)c1C#N [drawing 1205] | < 60%
35 | CCN(C)S(=O)(=O)Nc1ccc(F)c(Oc2ccc3ncn([C@@H]4COC5(CCN(C(=O)CN6CCC(c7ccc(OC8CCC(=O)NC8=O)cc7OS(C)(=O)=O)CC6)CC5)C4)c(=O)c3c2)c1C#N (stereo partly drawn) [drawing 1206] | 60 to 95%
36 | CCN(C)S(=O)(=O)Nc1ccc(F)c(Oc2ccc3ncn([C@@H]4COC5(CCN(C(=O)CN6CCC(c7ccc(C8CCC(=O)NC8=O)cc7OS(C)(=O)=O)CC6)CC5)C4)c(=O)c3c2)c1C#N (stereo partly drawn) [drawing 1207] | < 60%
37 | CCN(C)S(=O)(=O)Nc1ccc(F)c(Oc2ccc3ncn([C@@H]4COC5(CCN(C(=O)CN6CCC(c7ccc(NC8CCC(=O)NC8=O)cc7OS(C)(=O)=O)CC6)CC5)C4)c(=O)c3c2)c1C#N (stereo partly drawn) [drawing 1208] | 60 to 95%
38 | CCN(C)S(=O)(=O)Nc1ccc(F)c(Oc2ccc3ncn([C@@H]4COC5(CCN(C(=O)CN6CCC(c7ccc(NC8CCC(=O)NC8=O)cc7S(=O)(=O)F)CC6)CC5)C4)c(=O)c3c2)c1C#N (stereo partly drawn) [drawing 1209] | 60 to 95%

Same assay, conditions: read-out: HiBIT-Degradation A375.10 BRAF 24 hours DC50 nM; 24 hours, A375.10 cells

Row | SMILES | DC50
39 | CCN(C)S(=O)(=O)Nc1ccc(F)c(Oc2ccc3ncn([C@@H]4COC5(CCN(C(=O)CN6CCC(c7ccc(C8CCC(=O)NC8=O)cc7OS(=O)(=O)F)CC6)CC5)C4)c(=O)c3c2)c1C#N (stereo partly drawn) [drawing 1210] | < 1000 nM
40 | CCN(C)S(=O)(=O)Nc1ccc(F)c(Oc2ccc3ncn([C@H]4COC5(CCN(C(=O)CN6CCC(c7ccc(C8CCC(=O)NC8=O)cc7OS(=O)(=O)F)CC6)CC5)C4)c(=O)c3c2)c1C#N (stereo partly drawn) [drawing 1211] | < 1000 nM

Same assay, conditions: read-out: HiBIT-Degradation A375.10 BRAF 24 hours Emax

Row | SMILES | Emax
41 | CCN(C)S(=O)(=O)Nc1ccc(F)c(Oc2ccc3ncn([C@@H]4COC5(CCN(C(=O)CN6CCC(c7ccc(C8CCC(=O)NC8=O)cc7OS(=O)(=O)F)CC6)CC5)C4)c(=O)c3c2)c1C#N (stereo partly drawn) [drawing 1210] | < 60%
42 | CCN(C)S(=O)(=O)Nc1ccc(F)c(Oc2ccc3ncn([C@H]4COC5(CCN(C(=O)CN6CCC(c7ccc(C8CCC(=O)NC8=O)cc7OS(=O)(=O)F)CC6)CC5)C4)c(=O)c3c2)c1C#N (stereo partly drawn) [drawing 1211] | < 60%
